Data reported in ChEMBL document CHEMBL2057088 (Bioorg Med Chem, 2012).

What was measured:
Rattus norvegicus [1] = assay: Ex-vivo inhibition of DPP4 in po dosed Wistar rat plasma up to 24 hrs by fluorometry; type: functional, organism-based
Rattus norvegicus [2] = organism: Rattus norvegicus; assay: animal or person; details: Wistar, Plasma, po, 24 h, read-out: INH

O=C([C@@H]1C[C@H](N2CCN(c3cc(C(F)(F)F)nc4ccccc34)CC2)CN1)N1CCSC1
inhibition (Rattus norvegicus [1]): Dose-dependent effect
inhibition in vivo at 3 µmol/kg (Rattus norvegicus [2]): > 40%
